Test results taken from patent US6479435B1, “Diaryl ethers and processes for their preparation and herbicidal and desiccant compositions containing them” (ISK Americas Incorporated, priority 1997, dated 2002).

What was measured:
[1] = system: Broadleaf Weeds; assay: Post-emergent application in combination with other herbicides, percent control of broadleaf weeds; assay type: in vivo; conditions: 31.25 g ai/ha
Protocol: All test compounds were dissolved in acetone and applied to the test units in a volume of 187 l/ha. Test materials were applied at rates ranging from 125 g ai/ha to 1000 g ai/ha using a track sprayer equipped with a TJ8001E even flow flat fan spray nozzle. Plants were arranged on a shelf so that the top of the canopy (post-emerge) or top of the soil surface (pre-emerge) was 40-45 cm below the nozzle. Pressurized air was used to force the test solution through the nozzle as it was mechanically advanced (via electrically driven chain drive) over the top of all test plants/pots. This application simulates a typical commercial field herbicide application. […] For post-emerge tests, seeds were planted 8-21 days prior to the test to allow emergence and good foliage development prior to application of the test substances. At the time of the post-emerge application, plants of all species were usually at the 2-3 leaf stage of development. Post-emerge test units were always bottom-watered. At 14 days after application of the test materials, phytotoxicity ratings were recorded. A rating scale of 0-100 was used as previously described in Research Methods in Weed Science, 2nd edition, B. Truelove, Ed., Southern Weed Science Society, Auburn University, Auburn, Ala., 1977. Briefly, “0” corresponds to no damage and “100” corresponds to complete death of all plants in the test unit. This scale was used both to determine efficacy against weed species and damage to crop species. Herbicide activity data for various compounds of this invention, which are shown by compound number in Tables 1-9, are shown in Tables 13 and 14. […] (Note: Weed species abbreviations are from the Composite List of Weeds published by the Weed Science Society of America, 1989.) The following examples illustrate the utility of combinations of compounds of this invention and existing herbicides. The methods used are identical to those for the application of single compounds except the commercial formulations of existing herbicides were added to the spray mixture in the appropriate amounts before spraying. Combination Example 3. Post-emergent Application of Compound 9-1 with Nicosulfuron Combination Example 4. Postemergent Application of Compound 9-1 with Pyridate

[2] = system: Grass Weeds; assay: Post-emergent application in combination with other herbicides, percent control of grass weeds; assay type: in vivo; conditions: 31.25 g ai/ha
Protocol: All test compounds were dissolved in acetone and applied to the test units in a volume of 187 l/ha. Test materials were applied at rates ranging from 125 g ai/ha to 1000 g ai/ha using a track sprayer equipped with a TJ8001E even flow flat fan spray nozzle. Plants were arranged on a shelf so that the top of the canopy (post-emerge) or top of the soil surface (pre-emerge) was 40-45 cm below the nozzle. Pressurized air was used to force the test solution through the nozzle as it was mechanically advanced (via electrically driven chain drive) over the top of all test plants/pots. This application simulates a typical commercial field herbicide application. In the post-emerge test, a commercial non-ionic surfactant was also included (0.25% v/v) to enhance wetting of the leaf surfaces Qf target plants at rates ranging from 63 g ai/ha to 1000 g ai/ha. For post-emerge tests, seeds were planted 8-21 days prior to the test to allow emergence and good foliage development prior to application of the test substances. At the time of the post-emerge application, plants of all species were usually at the 2-3 leaf stage of development. Post-emerge test units were always bottom-watered. At 14 days after application of the test materials, phytotoxicity ratings were recorded. A rating scale of 0-100 was used as previously described in Research Methods in Weed Science, 2nd edition, B. Truelove, Ed., Southern Weed Science Society, Auburn University, Auburn, Ala., 1977. Briefly, “0” corresponds to no damage and “100” corresponds to complete death of all plants in the test unit. This scale was used both to determine efficacy against weed species and damage to crop species. Herbicide activity data for various compounds of this invention, which are shown by compound number in Tables 1-9, are shown in Tables 13 and 14. […] (Note: Weed species abbreviations are from the Composite List of Weeds published by the Weed Science Society of America, 1989.) The following examples illustrate the utility of combinations of compounds of this invention and existing herbicides. The methods used are identical to those for the application of single compounds except the commercial formulations of existing herbicides were added to the spray mixture in the appropriate amounts before spraying. Combination Example 3. Post-emergent Application of Compound 9-1 with Nicosulfuron Combination Example 4. Postemergent Application of Compound 9-1 with Pyridate

## Nn1c(C(F)(F)F)cc(=O)n(-c2cc(Oc3ncccc3[N+](=O)[O-])c(Cl)cc2F)c1=O [Compound 9-1, 1-amino-3-[4-chloro-2-fluoro-5-(3-nitro-2-pyridyloxy)phenyl]-6-trifluoromethyl-1,2,3,4-tetrahydropyrimidine-2,4-dione]
[1]
  Percent Control of Broadleaf Weeds ABUTH: 60%
  Percent Control of Broadleaf Weeds AMARE: 60%
  Percent Control of Broadleaf Weeds AMBEL: 40%
  Percent Control of Broadleaf Weeds CASOB: 0%
  Percent Control of Broadleaf Weeds CHEAL: 90%
  Percent Control of Broadleaf Weeds IPOHE: 80%
[1]; Combination Example 4
  Percent Control of Broadleaf Weeds ABUTH: 60%
  Percent Control of Broadleaf Weeds AMARE: 60%
  Percent Control of Broadleaf Weeds AMBEL: 40%
  Percent Control of Broadleaf Weeds CASOB: 0%
  Percent Control of Broadleaf Weeds CHEAL: 90%
  Percent Control of Broadleaf Weeds IPOHE: 80%
[2]
  Percent Control of Grass Weeds DIGSA: 10%
  Percent Control of Grass Weeds ECHCG: 0%
  Percent Control of Grass Weeds SETVI: 10%
  Percent Control of Grass Weeds SORHA: 10%
[2]; Combination Example 4
  Percent Control of Grass Weeds DIGSA: 10%
  Percent Control of Grass Weeds ECHCG: 0%
  Percent Control of Grass Weeds SETVI: 10%
  Percent Control of Grass Weeds SORHA: 10%
